According to ChEMBL document CHEMBL3991601, “The target landscape of clinical kinase drugs” (Science, 2017):
Activity calls are given as the source filed them. For most assays here, no stated cut-off is given here; in the data, actives have a measured Kd and inactives only a lower limit.

Experiments:
[1] = target: Calcium/calmodulin-dependent protein kinase type II subunit gamma (Homo sapiens, UniProt Q13555)
[2] = target: Serine/threonine-protein kinase/endoribonuclease IRE1 (Homo sapiens, UniProt O75460)
Chain of Serine/threonine-protein kinase/endoribonuclease IRE1 (O75460 whole entry): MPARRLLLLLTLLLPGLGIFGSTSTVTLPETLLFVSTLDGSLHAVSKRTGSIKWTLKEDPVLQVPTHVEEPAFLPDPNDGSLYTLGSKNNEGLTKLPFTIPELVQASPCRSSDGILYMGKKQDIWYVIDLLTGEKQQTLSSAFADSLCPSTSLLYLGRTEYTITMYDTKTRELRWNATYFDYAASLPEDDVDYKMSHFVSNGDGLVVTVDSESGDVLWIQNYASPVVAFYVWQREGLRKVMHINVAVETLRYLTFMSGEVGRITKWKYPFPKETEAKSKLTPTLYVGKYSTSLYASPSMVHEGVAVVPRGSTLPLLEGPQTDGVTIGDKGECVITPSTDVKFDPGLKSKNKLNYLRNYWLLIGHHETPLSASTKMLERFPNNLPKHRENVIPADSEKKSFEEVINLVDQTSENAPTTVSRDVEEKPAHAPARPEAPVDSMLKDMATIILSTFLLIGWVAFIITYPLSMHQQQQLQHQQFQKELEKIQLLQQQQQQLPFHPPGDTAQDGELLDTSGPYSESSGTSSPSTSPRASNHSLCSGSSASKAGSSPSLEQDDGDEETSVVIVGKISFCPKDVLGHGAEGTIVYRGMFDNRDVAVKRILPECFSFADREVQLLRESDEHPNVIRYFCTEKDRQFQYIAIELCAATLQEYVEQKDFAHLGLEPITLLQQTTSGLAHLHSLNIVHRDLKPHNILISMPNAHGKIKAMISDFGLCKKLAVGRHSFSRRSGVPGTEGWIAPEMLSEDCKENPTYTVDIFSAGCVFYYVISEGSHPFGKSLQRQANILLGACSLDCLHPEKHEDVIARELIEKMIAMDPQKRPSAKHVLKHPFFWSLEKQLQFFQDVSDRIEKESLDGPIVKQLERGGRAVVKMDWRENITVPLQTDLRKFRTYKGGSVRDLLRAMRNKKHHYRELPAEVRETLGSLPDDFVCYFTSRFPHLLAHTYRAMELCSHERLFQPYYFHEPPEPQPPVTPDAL

[3] = target: T1, Ferrochelatase, mitochondrial (Homo sapiens, UniProt P22830)
T1 sequence (P22830 whole entry): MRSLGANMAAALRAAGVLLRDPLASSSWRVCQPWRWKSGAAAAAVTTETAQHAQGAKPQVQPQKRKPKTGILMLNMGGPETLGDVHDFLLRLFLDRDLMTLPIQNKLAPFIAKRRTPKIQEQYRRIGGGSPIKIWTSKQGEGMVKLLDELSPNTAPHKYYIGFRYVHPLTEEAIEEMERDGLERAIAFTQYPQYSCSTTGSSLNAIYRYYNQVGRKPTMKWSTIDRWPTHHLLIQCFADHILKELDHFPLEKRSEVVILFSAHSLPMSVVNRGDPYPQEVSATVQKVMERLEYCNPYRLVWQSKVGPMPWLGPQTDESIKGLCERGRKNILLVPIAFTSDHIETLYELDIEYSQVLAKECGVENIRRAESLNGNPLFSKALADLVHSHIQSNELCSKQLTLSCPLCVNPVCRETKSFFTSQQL

Glycine--tRNA ligase = target: T2, Glycine--tRNA ligase (Homo sapiens, UniProt P41250)
T2 sequence (P41250 whole entry): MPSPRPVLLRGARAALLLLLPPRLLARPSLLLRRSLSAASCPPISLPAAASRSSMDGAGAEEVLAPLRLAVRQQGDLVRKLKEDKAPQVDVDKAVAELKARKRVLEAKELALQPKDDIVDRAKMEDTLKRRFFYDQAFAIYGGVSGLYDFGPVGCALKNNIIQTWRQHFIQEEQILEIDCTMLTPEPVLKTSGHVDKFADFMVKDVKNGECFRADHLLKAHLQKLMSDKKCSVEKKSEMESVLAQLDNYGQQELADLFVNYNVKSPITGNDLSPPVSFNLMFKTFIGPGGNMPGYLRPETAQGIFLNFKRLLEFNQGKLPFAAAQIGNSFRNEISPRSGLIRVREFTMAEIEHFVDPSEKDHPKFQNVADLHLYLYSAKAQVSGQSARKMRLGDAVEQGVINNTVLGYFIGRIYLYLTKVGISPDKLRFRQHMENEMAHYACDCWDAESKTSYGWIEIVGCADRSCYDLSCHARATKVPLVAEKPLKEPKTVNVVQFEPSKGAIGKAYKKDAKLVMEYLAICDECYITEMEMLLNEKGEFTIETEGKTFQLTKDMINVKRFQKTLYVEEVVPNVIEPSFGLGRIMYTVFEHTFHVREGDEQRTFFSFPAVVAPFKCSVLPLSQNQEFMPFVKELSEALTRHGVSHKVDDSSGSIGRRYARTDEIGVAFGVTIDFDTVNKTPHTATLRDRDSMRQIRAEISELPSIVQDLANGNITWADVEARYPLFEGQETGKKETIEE

[4] = target: T3, Mitogen-activated protein kinase kinase kinase 6 (Homo sapiens, UniProt O95382)
T3 sequence (O95382 whole entry): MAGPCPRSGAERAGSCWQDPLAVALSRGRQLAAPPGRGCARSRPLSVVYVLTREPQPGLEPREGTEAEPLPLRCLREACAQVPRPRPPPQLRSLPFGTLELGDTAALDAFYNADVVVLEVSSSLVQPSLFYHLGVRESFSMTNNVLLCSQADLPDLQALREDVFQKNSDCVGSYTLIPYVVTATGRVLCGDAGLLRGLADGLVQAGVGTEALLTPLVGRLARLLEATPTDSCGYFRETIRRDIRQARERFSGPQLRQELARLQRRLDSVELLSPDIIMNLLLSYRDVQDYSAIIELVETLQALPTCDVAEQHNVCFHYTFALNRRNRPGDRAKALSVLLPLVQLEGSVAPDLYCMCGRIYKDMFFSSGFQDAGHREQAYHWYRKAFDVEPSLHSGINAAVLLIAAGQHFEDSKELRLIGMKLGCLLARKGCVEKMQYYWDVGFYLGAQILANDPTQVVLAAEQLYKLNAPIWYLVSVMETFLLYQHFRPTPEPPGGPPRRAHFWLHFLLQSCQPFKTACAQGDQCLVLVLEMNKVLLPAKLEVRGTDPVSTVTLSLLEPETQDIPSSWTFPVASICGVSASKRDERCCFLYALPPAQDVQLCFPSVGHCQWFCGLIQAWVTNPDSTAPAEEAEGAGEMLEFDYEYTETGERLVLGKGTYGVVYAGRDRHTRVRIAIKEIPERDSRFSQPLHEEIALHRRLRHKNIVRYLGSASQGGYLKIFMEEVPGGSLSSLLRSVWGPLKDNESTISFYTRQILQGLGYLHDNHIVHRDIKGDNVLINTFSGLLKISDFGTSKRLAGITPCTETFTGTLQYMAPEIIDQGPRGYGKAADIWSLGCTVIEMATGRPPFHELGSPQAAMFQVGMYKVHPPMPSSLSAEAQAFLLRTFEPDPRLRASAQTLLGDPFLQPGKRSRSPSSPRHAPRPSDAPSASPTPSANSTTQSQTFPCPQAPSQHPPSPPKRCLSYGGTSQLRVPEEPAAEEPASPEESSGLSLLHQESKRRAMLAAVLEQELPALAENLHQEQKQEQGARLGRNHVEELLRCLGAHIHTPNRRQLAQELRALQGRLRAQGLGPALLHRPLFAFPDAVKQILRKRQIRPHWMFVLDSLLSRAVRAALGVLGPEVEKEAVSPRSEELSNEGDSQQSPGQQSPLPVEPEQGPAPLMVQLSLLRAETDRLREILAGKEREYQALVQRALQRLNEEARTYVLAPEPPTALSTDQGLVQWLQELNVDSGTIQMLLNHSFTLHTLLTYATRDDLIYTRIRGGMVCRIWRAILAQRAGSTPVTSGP

Myosin-14 = Myosin-14 (Homo sapiens, UniProt Q7Z406)
[5] = target: TRAF2 and NCK-interacting protein kinase (Homo sapiens, UniProt Q9UKE5)
Chain of TRAF2 and NCK-interacting protein kinase (Q9UKE5 whole entry): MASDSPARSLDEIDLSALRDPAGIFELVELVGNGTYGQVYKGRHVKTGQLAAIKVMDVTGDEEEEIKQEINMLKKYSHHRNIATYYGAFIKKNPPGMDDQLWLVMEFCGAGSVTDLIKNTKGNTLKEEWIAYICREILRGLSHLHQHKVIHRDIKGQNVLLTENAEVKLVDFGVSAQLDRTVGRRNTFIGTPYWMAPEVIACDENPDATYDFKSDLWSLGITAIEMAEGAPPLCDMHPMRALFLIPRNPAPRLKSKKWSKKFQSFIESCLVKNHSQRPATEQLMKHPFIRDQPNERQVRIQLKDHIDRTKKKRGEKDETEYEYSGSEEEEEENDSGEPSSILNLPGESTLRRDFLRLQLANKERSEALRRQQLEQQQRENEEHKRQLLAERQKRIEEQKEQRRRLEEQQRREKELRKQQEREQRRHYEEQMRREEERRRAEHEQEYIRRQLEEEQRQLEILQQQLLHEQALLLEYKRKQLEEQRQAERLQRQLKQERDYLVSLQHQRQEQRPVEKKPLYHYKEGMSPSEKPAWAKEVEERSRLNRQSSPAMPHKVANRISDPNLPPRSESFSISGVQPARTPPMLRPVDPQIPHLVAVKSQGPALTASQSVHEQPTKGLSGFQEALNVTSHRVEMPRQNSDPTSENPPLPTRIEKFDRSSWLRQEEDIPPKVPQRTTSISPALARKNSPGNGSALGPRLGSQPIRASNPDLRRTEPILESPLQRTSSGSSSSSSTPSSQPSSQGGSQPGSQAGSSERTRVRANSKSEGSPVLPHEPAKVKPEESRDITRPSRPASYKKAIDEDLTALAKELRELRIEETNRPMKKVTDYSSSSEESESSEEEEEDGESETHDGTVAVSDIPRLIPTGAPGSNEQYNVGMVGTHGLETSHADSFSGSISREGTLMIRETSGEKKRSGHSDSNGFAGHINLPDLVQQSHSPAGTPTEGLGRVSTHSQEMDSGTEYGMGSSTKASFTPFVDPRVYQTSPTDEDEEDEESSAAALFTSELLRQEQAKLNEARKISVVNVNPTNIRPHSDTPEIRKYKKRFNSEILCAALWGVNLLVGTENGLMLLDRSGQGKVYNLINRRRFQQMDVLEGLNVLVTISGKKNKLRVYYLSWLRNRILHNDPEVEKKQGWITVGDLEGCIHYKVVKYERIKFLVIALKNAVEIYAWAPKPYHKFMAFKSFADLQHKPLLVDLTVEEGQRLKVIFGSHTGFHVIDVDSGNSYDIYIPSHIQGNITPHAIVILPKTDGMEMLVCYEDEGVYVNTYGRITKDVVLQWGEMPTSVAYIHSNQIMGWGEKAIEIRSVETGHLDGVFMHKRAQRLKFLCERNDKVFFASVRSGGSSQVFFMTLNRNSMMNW

[6] = target: Mitogen-activated protein kinase kinase kinase 20 (Homo sapiens, UniProt Q9NYL2)
Chain of Mitogen-activated protein kinase kinase kinase 20 (Q9NYL2 whole entry): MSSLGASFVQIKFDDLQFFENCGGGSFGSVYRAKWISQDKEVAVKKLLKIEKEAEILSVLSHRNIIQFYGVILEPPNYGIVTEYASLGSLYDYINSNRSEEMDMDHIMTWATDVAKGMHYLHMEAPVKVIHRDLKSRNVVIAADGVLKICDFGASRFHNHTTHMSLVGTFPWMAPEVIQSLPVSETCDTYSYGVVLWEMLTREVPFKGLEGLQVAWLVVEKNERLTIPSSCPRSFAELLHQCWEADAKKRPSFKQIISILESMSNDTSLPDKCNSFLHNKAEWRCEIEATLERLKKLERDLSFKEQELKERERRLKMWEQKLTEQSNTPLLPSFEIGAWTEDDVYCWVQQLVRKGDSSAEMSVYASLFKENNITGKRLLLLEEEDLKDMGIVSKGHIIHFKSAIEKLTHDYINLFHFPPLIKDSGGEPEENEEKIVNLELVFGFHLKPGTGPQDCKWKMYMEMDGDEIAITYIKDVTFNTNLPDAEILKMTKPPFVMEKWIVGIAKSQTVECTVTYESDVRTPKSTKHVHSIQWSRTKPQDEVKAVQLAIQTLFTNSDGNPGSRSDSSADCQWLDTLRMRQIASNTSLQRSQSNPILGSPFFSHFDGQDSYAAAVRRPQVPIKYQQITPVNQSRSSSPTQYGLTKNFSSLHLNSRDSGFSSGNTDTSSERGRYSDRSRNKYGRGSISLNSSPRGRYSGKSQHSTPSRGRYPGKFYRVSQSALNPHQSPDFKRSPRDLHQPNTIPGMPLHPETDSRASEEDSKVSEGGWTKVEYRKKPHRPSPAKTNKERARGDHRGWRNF

Measured: Kd

Chain of Calcium/calmodulin-dependent protein kinase type II subunit gamma (Q13555 whole entry): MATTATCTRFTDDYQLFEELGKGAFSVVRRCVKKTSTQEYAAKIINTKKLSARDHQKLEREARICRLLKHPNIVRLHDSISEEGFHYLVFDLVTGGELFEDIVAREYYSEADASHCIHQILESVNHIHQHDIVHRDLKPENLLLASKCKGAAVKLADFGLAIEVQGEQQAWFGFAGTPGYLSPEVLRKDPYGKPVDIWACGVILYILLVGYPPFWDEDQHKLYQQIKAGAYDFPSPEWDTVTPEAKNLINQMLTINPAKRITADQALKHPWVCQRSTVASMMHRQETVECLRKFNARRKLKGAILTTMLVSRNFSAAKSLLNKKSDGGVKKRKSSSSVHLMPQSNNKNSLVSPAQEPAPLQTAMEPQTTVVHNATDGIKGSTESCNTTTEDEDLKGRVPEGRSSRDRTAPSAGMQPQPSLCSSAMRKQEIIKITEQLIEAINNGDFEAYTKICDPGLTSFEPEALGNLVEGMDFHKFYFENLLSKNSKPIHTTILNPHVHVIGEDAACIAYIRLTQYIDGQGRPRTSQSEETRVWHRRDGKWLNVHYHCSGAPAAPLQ

CN1N=C(N)c2cn([C@@H]3O[C@H](COP(=O)(O)O)[C@@H](O)[C@H]3O)c3ncnc1c23 [TRICIRIBINE PHOSPHATE]
inactive: [1] > 30 µM | [2] > 30 µM | [3] > 30 µM | Glycine--tRNA ligase > 30 µM | [4] > 30 µM | Myosin-14 > 30 µM | [5] > 30 µM | [6] > 30 µM

O=C(c1ccc(F)c(F)c1Nc1ccc(I)cc1F)N1CC(O)([C@@H]2CCCCN2)C1 [COBIMETINIB]
inactive: [1] > 30 µM | [2] > 30 µM | [3] > 30 µM | Glycine--tRNA ligase > 30 µM | [4] > 30 µM | Myosin-14 > 30 µM | [5] > 30 µM | [6] > 30 µM
